The values that follow come from US9359322B2, “C-linked glucuronide of N-(4-hydroxybenzyl) retinone, analogs thereof, and methods of using the same to inhibit neoplastic cell growth” (Wisconsin Alumni Research Foundation, priority 2005, dated 2016).

The target in assay [1] is T1, RARβ (Homo sapiens, UniProt P10826).
T1 sequence (P10826 1-455): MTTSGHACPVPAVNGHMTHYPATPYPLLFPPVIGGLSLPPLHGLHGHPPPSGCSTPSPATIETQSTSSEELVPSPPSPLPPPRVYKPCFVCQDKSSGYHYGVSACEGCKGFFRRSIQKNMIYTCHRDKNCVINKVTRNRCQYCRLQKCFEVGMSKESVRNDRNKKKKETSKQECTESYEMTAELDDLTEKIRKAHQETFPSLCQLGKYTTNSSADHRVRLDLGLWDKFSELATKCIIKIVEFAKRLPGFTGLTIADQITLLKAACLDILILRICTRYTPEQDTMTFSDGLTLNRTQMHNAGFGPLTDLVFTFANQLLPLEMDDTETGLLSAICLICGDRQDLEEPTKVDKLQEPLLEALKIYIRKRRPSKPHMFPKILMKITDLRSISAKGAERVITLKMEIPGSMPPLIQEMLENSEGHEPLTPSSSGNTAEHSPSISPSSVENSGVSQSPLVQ
In words: Nuclear retinoid receptor binding assay, competition with [3H]all-trans RA. The settings on record: FIG. 3A. As to the method:
(§1) Nuclear Retinoid Receptor Binding Assay. Competition of 3 and 7 and 4-HBRCGlucose with [^3H]-all-trans-RA (4.2-4.6 nM) for binding to RARβ and RARγ and with [^3H]-9-cis RA (1.9 nM) for binding to RXRγ was determined using an in vitro ligand binding assay.^41, 42 [^3H]-all-trans-RA (40.5 Ci/mmole) or [^3H]-9-cis-RA (69.4 Ci/mmole) was added to receptor-containing extracts in the absence and presence of increasing concentrations of competing ligands at 4° C. for 3 hr. A hydroxylapatite (HAP) assay was used to separate ligand bound to receptor from that free in solution, and the radioactivity associated with the HAP pellet was measured by scintillation counting.

For assay [2], the target named is T2, RARγ (Homo sapiens, UniProt P13631).
T2 sequence (P13631 1-454): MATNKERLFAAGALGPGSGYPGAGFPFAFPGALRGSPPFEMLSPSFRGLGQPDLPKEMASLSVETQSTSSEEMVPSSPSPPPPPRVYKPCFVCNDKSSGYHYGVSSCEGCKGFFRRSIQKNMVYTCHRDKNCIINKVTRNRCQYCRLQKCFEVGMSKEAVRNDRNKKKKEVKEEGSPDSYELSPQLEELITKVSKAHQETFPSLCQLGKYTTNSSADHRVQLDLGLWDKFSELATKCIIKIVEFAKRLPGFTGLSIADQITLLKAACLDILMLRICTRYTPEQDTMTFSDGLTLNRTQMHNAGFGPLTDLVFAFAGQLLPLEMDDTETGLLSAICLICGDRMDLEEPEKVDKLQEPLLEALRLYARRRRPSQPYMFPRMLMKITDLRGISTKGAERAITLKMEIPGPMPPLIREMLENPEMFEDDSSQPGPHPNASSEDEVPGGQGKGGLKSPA
The description is as above. The note with it: FIG. 3B. The procedure: as §1

Assay [3] has as its target T3, RARα (Homo sapiens, UniProt P10276).
T3 sequence (P10276 1-462): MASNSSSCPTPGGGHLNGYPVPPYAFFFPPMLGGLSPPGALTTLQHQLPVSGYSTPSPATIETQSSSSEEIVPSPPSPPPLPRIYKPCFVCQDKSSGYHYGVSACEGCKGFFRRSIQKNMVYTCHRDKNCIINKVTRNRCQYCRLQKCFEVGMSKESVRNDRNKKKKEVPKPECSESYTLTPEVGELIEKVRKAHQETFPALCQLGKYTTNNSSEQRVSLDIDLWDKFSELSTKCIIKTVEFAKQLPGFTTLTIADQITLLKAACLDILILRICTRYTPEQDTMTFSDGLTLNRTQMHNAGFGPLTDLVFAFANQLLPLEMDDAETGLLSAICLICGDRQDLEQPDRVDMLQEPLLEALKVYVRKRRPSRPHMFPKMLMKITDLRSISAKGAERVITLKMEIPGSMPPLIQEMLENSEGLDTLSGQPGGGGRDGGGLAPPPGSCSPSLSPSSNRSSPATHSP
In words: Nuclear retinoid receptor binding assay. The note with it: 4-HBRCG up to 10^−4.5 M; data not shown.

Assay [4] deals with T4, RXRγ (Homo sapiens, UniProt P48443).
T4 sequence (P48443 1-463): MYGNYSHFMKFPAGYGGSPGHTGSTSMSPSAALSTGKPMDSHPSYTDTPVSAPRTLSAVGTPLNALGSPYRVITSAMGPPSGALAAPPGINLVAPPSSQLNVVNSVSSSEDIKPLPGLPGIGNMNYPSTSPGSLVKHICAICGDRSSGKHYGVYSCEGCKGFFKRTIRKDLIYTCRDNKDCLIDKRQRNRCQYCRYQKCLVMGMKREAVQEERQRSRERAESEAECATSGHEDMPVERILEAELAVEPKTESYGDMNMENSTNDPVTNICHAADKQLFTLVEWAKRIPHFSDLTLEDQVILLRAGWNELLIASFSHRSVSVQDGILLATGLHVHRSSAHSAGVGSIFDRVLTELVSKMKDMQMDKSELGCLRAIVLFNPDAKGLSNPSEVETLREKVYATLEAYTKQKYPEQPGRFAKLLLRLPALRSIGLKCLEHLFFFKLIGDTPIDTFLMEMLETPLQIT
In words: Nuclear retinoid receptor binding assay, competition with [3H]9-cis RA. The note with it: 4-HBRCG up to 10^−4.5 M; data not shown. The procedure:
as §1

Assay [5] concerns MCF-7 human breast cancer cells. In words: Growth inhibition of MCF-7 human breast cancer cells. The settings on record: 10^−5 M, 8-day period. It counts as cell-based. The procedure: Inhibition of MCF-7 human breast cancer cell growth over an 8-day period was used as a means to assess the activity of 4-HBRCG and the analog 4-HBRCGlucose.
Growth inhibition of MCF-7 human breast cancer cells. MCF-7 cells were obtained from the American Type Culture Collection, Manassas, Va. They were maintained in DMEM medium supplemented with 4 g/L glucose, 3.7 g/L sodium bicarbonate and 10% heat-inactivated fetal calf serum. Cells were passaged into 12-well plates, cultured for 24 hours, after which time they were dosed with vehicle (0.2% ethanol) or retinoids; medium was changed and fresh vehicle or retinoids were added daily. Cells were harvested and the number of live cells was assessed using fluorescein diacetate, which yields a fluorescent product upon cleavage by metabolically active cells. Using fluorescent microscopy, at least 200 cells/well were counted with a hemacytometer.

Consider `CC1=C(/C=C/C(C)=C/C=C/C(C)=C/C(=O)Cc2ccc(C[C@@H]3O[C@H](CO)[C@@H](O)[C@H](O)[C@H]3O)cc2)C(C)(C)CCC1` [4-HBRCGlucose, 2,6-Anhydro-7-deoxy-7-[4-(retinoylmethyl)-phenyl]-D-glycero-D-gulo-heptinol], for which the “Binding to RARβ” value in assay [1] is given as “binds poorly”. The “Binding to RARγ” value in assay [2] was “binds poorly”. Moreover, the “Binding to RARα” value in assay [3] was “binds poorly”. In addition, the “Competition for [3H]9-cis RA binding to RXR” value in assay [4] is listed as “binds poorly”. In addition, the “State of MCF-7 cells at end of assay” value in assay [5] was “the majority of the MCF-7 cells were dead at the end of the assay”. Further, the “Effect on number of live MCF-7 cells” value in assay [5] (FIG. 5) is “reduction in the number of live cells”.
